Literature values as cited in patent US20100092557A1 (priority 2006, published 2010).

Settings: general statement in the background; species and matrix not given

Compound: O=C(O)Cc1ccccc1Nc1c(Cl)cccc1Cl [diclofenac]
- half-life: 1.1 h

Compound: O=C(O)c1ccccc1Nc1cccc(C(F)(F)F)c1 [flufenamic acid]
- half-life: 1.4 h

Compound: COc1ccc2c(c1)c(CC(=O)O)c(C)n2C(=O)c1ccc(Cl)cc1 [indomethacin]
- half-life: 4.6 h

Compound: CCCCC1C(=O)N(c2ccccc2)N(c2ccccc2)C1=O [phenylbutazone]
- half-life: 68 h

Compound: CN1C(C(=O)Nc2ccccn2)=C(O)c2ccccc2S1(=O)=O [piroxicam]
- half-life: 57 h

Compound: CC(C(=O)O)c1ccc(C(=O)c2ccccc2)s1 (stereo not drawn) [tiaprofenic acid]
- half-life: 3.0 h
